# Assay results taken from patent US7226783B1, “Vanillin production” (David Michael & Co., Inc., priority 1997, dated 2007).
# What was measured:
# [1] = test system: alcohol dehydrogenase from Vanilla planifolia embryo culture (vanillyl alcohol dehydrogenase, VAD); test: Substrate specificity of vanillyl alcohol dehydrogenase (VAD); format: biochemical; conditions: for Activity with the compound as substrate, NADH: cofactor NADH
# Description: We have purified and characterized the activity of VAD that catalyze the reduction of vanillin to vanillyl alcohol. The enzyme was identified as an NADH or NADPH-dependent alcohol dehydrogenase. The purification protocol was as set forth below.
# Crude enzyme extract: Tissue was homogenized in 0.05 M actetate-Na buffer pH 4.0 (in proportion, 1 g of the tissue and 5 ml of the buffer) in an ice bath, using Polytrone homogenizer, at 20,000 revolutions of the blade per min. The homogenate was centrifuged at 13000 g for 15 min at 4° C. and the supernatant served as the crude enzyme source.
# Ammonium sulfate fractionation and molecular sieving: Crude enzyme extract (100 ml) was supplied with ammonium sulfate in an ice bath up to 60% of saturation (44.4 g of Ammonium sulphate per 100 ml). The precipitate was centrifuged and discarded. The supernatant was supplied with ammonium sulfate up to 90% of saturation (total 64.6 g per 100 ml of crude extract). The precipitate was collected (10 min centrifugation at 10,000 g), dissolved in 7 ml of extraction buffer and subjected to molecular sieving at Sephacryl S-300 High Load Column (LKB Pharmacia) 2.6×60 cm, in 0.1 M pH 4.0 acetate-Na buffer. The flow rate was adjusted to 1 ml/min and 5 ml fractions were collected. The protein elution profile was monitored at 280 nm. Five fractions (of a total of 50) containing dehydrogenase activity (130–155 ml of the column eluate) were collected.
# The column was developed with 0.5 M Tris/HCL buffer pH 7.4 in 0.0–1.0 M NaCl gradient (total gradient volume—70 ml) and 2.5 ml fractions were collected. Vanillyl alcohol dehydrogenase was released from the column between 0.3–0.4 M NaCl. Fractions containing VAD activity were dialysed overnight against 0.05 M caetate-Na buffer pH 4.0 and concentrated up to 50 times using Minicon concentrating filters (Amicon). […]
# [2] = test system: Vanilla planifolia Embryo Culture; test: Malic acid elicitation of embryo culture, HPLC analysis of intermediary metabolites; format: cell-based
# Description: (§1) Embryo cultures of Vanilla planifolia were established as described in Example 1. The procedures used to extract phenolics from the cultured embryo cells and to analyze the extracts by high pressure liquid chromatography (HPLC) were as described generally by Havkin-Frenkel et al., Plant Cell, Tissue and Organ Culture 45: 133–136 (1996).
# (§2) In the extraction procedure, 3 ml of 0.05 M sodium acetate buffer, pH 5.5, was added to about 1 gram of fresh culture. Samples were placed in boiling water for three minutes, then chilled. The cells were next homogenized in a Polytron blender for 1 minute at medium speed. A β-glucosidase solution was added to the homogenized cells to give a final concentration of 0.2%. Each sample was then incubated at 37° C. for 5 hr. Next, 17 ml of 95% ethanol was added, after which incubation at 37° C. was continued for an additional 24 hrs. The extract was then filtered and the ethanol evaporated. The filtrate was extracted twice using ethyl acetate, then extracted twice with ethyl acetate acidified to pH 3 with HCl. The extracts were combined and the ethyl acetate evaporated. The residue was dissolved in 1 ml of acidified methanol and filtered with a 0.45 μm syringe filter for HPLC analysis.
# (§3) Metabolite levels were measured with a Hewlett Packard 1090L or a Waters HPLC with a UV detector at 280 nm. The Waters HPLC was also equipped with a diode array detector to confirm the identities of the various intermediates, and the identities of the various intermediates were further confirmed by mass spectrometry. The column was a Supelco C-18 DB column of dimensions 250 mm×4.6 mm and a particle size of 5 μm. The mobile phase contained methanol and water, each of which was acidified with 1.25% acetic acid. The flow rate was 1 ml/min, with a solvent gradient as follows: […]
# Malic acid in concentrations of 0.1 to 3% was applied as a disodium salt to the growing medium. The culture was maintained for 1 to 15 days, then was extracted as described in Example 2.
# Cultures were grown in medium containing 3% malic acid by weight, for 7 days.
# [3] = test system: p-hydroxybenzaldehyde synthase; test: Substrate specificity of p-hydroxybenzaldehyde synthase (chain shortening enzyme), crude enzyme; format: biochemical, Vanilla planifolia; conditions: crude enzyme, HPLC detection of product
# Description: Sterile plant material (2 g) 2–3 weeks after subculture, was homogenized in a cooled Potter glass homogenizer with 4 ml of 0.1 M HEPES buffer, pH 8.0, containing 10 mM DTT. The homogenate was next centrifuged at 4° C. at 15.000× g for 15 min. Resultant supernatant (4 ml) was filtered through Sephadex G-25 column (void volume 3–4 ml.) Equilibrated with Tris/HCL buffer pH7, containing 10 mM DTT. The column was washed with the same buffer and 2 ml fraction following the void volume was collected. This fraction was used as the crude enzyme source.
# The p-HO-aldehyde synthase activity was determined in the following mixture:
# crude enzyme extract: 10 μl
# (substrate=1.8 mM p-coumarate in 0.1 M Tris/HCl, pH 8.0 with 10 mM DTT)
# The mixture was incubated for 10–60 min (for longer incubation times, the activity was not proportional with time) at 35° C. and next, the reaction stopped by addition of 200 μl of acidified methanol (10% acetic acid in methanol). The slurry was passed through 0.45 μm filter and the filtrate (50 μl) injected into HPLC Bio-sil 18 HL 90-5 column (Reversed phase, 250 mm×4.6 mm). […] The eluate was monitored at 280 nm and retention time of the reaction product was compared to retention time of the standard compounds (benzaldehyde, p-HO-benzaldehyde, vanillin, protocatechuic aldehyde, p-coumaric acid, caffeic acid, ferulic acid, coniferyl aldehyde). The results were quantified using LKB Bromma 2221 Integrator.
# As a potential substrates for chain shortening enzyme the following compounds were tested: […]
# [4] = test system: Vanilla embryo culture; test: Feeding vanilla embryo culture with vanillin precursors, HPLC analysis of metabolites; format: cell-based, Vanilla planifolia
# From the text: We derived a scheme for the vanillin biosynthetic pathway by analysis of metabolites in cultured embryos and by experiments with feeding of precursors and intermediates. This scheme is shown in FIG. 1 and the experiments are described below.
# as §1, §2
# Extractions of metabolites from culture medium was similar to the cell extraction protocol. Five ml of spent medium was incubated in a β-glucosidase solution at 37° C. for 24 hrs. The medium was then extracted with ethyl acetate and the organic portions combined and evaporated, as for the cell extracts.
# as §3
# Results of selected experiments in which precursors or elicitors were added to vanilla cultures are set forth below. These experiments were performed in accordance with the procedures set forth in Examples 1–4.
# [5] = test system: V. planifolia embryo culture; test: Uptake of exogenously added vanillin and transformation to vanillyl alcohol in embryo culture; format: cell-based, Vanilla planifolia
# From the text: FIG. 3. Graph showing uptake of exogenously added vanillin and its transformation to vanillyl alcohol by vanillyl alcohol dehydrogenase in V. planifolia embryo culture. V(T)=vanillin in tissue; V(M)=vanillin in medium; VAL(T)=vanillyl alcohol in tissue; VAL(M)=vanillyl alcohol in medium.
# Similarly, vanilla embryo culture that can be elicited by various elicitors to produce vanillin accumulates vanillyl alcohol as a final product. It is important to state at this stage that all the intermediates in the pathway are found mainly as glucosides.
# [6] = 3% malic acid by weight in medium, 7 days
smiles,measurement,setting,value
CCOc1cc(C=O)ccc1O [4-hydroxy-3-ethoxybenzaldehyde],"Activity with the compound as substrate, NADH",[1],0.42 nmoles · gfwt^−1 · min^−1
CCOc1cc(C=O)ccc1OC [4-methoxy-3-ethoxybenzaldehyde],"Activity with the compound as substrate, NADH",[1],0.00 nmoles · gfwt^−1 · min^−1
"O=C(O)CC(O)C(=O)O (centres unmarked) [Malic Acid, malic acid]",BA content of culture,[2]; [6],0.02% of Dry Weight
same,HBA content of culture,[2]; [6],3.60% of Dry Weight
same,HMBA (vanillyl alcohol) content of culture,[2]; [6],0.700% of Dry Weight
same,HY content of culture,[2]; [6],0.050% of Dry Weight
same,PC content of culture,[2]; [6],0.20% of Dry Weight
same,PROALD content of culture,[2]; [6],0.025% of Dry Weight
same,VN (vanillin) content of culture,[2]; [6],0.072% of Dry Weight
same,stimulation of vanillin production relative to standard conditions,"[2]; 3% malic acid by weight, 7 days, embryo cultures",more than tenfold
same,vanillin yield,"[2]; 3% malic acid, embryo cultures, increase from 5",72 mg/100 g tissue
same,effect on production/accumulation of vanillin and vanillyl alcohol,"[2]; malic acid 0.1 to 3% as disodium salt, 1 to 15 days",induced the production/accumulation of vanillin and vanillyl alcohol
"O=C(O)/C=C/c1ccc(O)c(O)c1 [CAF, caffeic acid]",Result: conversion of the compound as substrate to the expected chain-shortened product,[3],negative
same,CA (p-coumaric acid) content of culture,[4]; precursor fed at 2 mM,189 mg/100 g dry wt.
same,HBA (p-hydroxybenzyl alcohol) content of culture,[4]; precursor fed at 2 mM,11350 mg/100 g dry wt.
same,"PRO-ALD (3,4-dihydroxybenzaldehyde) content of culture",[4]; precursor fed at 2 mM,21 mg/100 g dry wt.
same,VN (vanillin) content of culture,[4]; precursor fed at 2 mM,0.5 mg/100 g dry wt.
same,VN ALC (vanillyl alcohol) content of culture,[4]; precursor fed at 2 mM,32 mg/100 g dry wt.
"COc1cc(C=O)ccc1O [Vn, vanillin]",substrate preference of VAD,[1],most preferred substrates
same,"Activity with the compound as substrate, NADH",[1],1.26 nmoles · gfwt^−1 · min^−1
same,"Activity with the compound as substrate, NADPH",[1]; cofactor NADPH,0.97 nmoles · gfwt^−1 · min^−1
same,fate of compound applied to the growing medium of embryo culture,[5],rapid uptake and reduction of the applied compound to vanillyl alcohol
"OCc1ccc(O)cc1 [HBA, p-hydroxybenzyl alcohol]",CA (p-coumaric acid) content of culture,[4]; precursor fed at 1 mM,158 mg/100 g dry wt.
same,HBA (p-hydroxybenzyl alcohol) content of culture,[4]; precursor fed at 1 mM,13100 mg/100 g dry wt.
same,"PRO-ALD (3,4-dihydroxybenzaldehyde) content of culture",[4]; precursor fed at 1 mM,4.6 mg/100 g dry wt.
same,VN (vanillin) content of culture,[4]; precursor fed at 1 mM,0.001 mg/100 g dry wt.
same,VN ALC (vanillyl alcohol) content of culture,[4]; precursor fed at 1 mM,9.6 mg/100 g dry wt.
same,fate of HBA in tissue homogenates,[4]; tissue homogenates,rapidly metabolized to dihydroxybenzyl aldehyde
"COc1cc(/C=C/C(=O)O)ccc1O [FA, ferulic acid]",Result: conversion of the compound as substrate to the expected chain-shortened product,[3],negative
same,CA (p-coumaric acid) content of culture,[4]; precursor fed at 25 mM,136 mg/100 g dry wt.
same,HBA (p-hydroxybenzyl alcohol) content of culture,[4]; precursor fed at 25 mM,11007 mg/100 g dry wt.
same,"PRO-ALD (3,4-dihydroxybenzaldehyde) content of culture",[4]; precursor fed at 25 mM,4.8 mg/100 g dry wt.
same,VN (vanillin) content of culture,[4]; precursor fed at 25 mM,11.8 mg/100 g dry wt.
same,VN ALC (vanillyl alcohol) content of culture,[4]; precursor fed at 25 mM,23.8 mg/100 g dry wt.
O=CC=Cc1ccccc1 [Cinnamylaldehyde],"Activity with the compound as substrate, NADH",[1],0.00 nmoles · gfwt^−1 · min^−1
